From article PMC5444710, “Enhancement of radiosensitivity by the novel anticancer quinolone derivative vosaroxin in preclinical glioblastoma models” (Oncotarget, 2017)

Key:
[1] = system: P-glycoprotein drug pumps; set-up: method as in PMID 23688047; conditions: cited from earlier work
[2] = system: U251 cells; assay: Clonogenic survival assay; type: cell-based, human
Experimental: For clonogenic survival assays, exponentially growing cells (70% confluence) were cultured in regular media and treated with vosaroxin, at the appropriate concentrations, or vehicle (final dimethyl sulfoxide concentration of 0.1%) for 48 hours. Tumor cells were then irradiated at room temperature with increasing doses of radiation (0–6 Gy) using an x-ray linear accelerator (dose rate of 200 cGy/min). Nonirradiated controls were handled identically to the irradiated cells with the exception of the radiation exposure. […] […] Colonies containing more than 50 cells were counted. The plating efficiency was calculated as the number of colonies observed divided by the number of cells plated. The surviving fraction was calculated as the number of colonies formed in the treated dishes compared with the number formed in the control. The survival curves were analyzed using SPSS statistical software (Chicago, IL, USA) by means of a fit of the data by a weighted, stratified, linear regression, according to the linear-quadratic formula: S(D)/S(O) = exp-(αD + βD2). The cell survival enhancement ratio was calculated as the ratio of the mean inactivation dose under control conditions divided by the mean inactivation dose after treatment as previously described.

[3] = system: luciferase-transfected U251 cells; assay: Orthotopic intra-brain model (DFS, OS)
[4] = system: U87MG xenografts; assay: Cytokine expression in xenograft tissue extracts (ELISA); type: in vivo, female CD1-nu/nu mice; conditions: U87MG xenograft tissue extract
Experimental: (§1) After appropriate treatments, tumor cell cultures and tissues were harvested for analysis of cytokine expression. Cell pellets were washed with PBS and lysed with RIPA buffer. Cell lysates and conditioned media were assayed by ELISA to measure (i) active human caspase-3 (CBA045, Merck Chemicals Ltd., Nottingham, UK), (ii) beclin-1 (E98557Hu, USCN Life Sciences, Houston, TX, USA), and (iii) DNA damage (EpiQuik in situ DNA Damage Assay Kit, Epigentek, Farmingdale, NY, USA). Tumor extracts were analyzed for the presence of:
(§2) • MMP-2 (KHC3081) • TNF-α (KHC3011, Life Technologies Italia, Monza, Italy) • CXCR4 (Cyto Glow CXCR4 [pSer339], cell-based ELISA, Assay Biotech, Sunnyvale, CA, USA) • Human Fas ligand (ELH-FASL, RayBiotech, Norcross, GA, USA) • IL-6 (orb50052) and survivin (orb50135) (Biorbyt) • TGF-β1 (Quantikine ELISA Kit, DB100B, R&D Systems, Minneapolis, MN, USA) • SDF-1α (Human CXCL12/SDF-1α Quantikine ELISA Kit, DSA00, R&D Systems) • Mouse IL-10 DuoSet ELISA DY417 (R&D Systems Minneapolis, MN, USA) • Mouse NOS2 / iNOS ELISA Kit (Sandwich ELISA) - LS-F12166 (LifeSpan Biosciences, Inc, Seattle, WA, USA) • Mouse ARG1 / Arginase-1 ELISA Kit (Sandwich ELISA) - LS-F10883 (LifeSpan Biosciences, Inc, Seattle, WA, USA)
(§3) All determinations were performed in triplicate, according to manufacturers’ instructions. Data are presented as mean ± SE. Cytokine secretion determined by ELISA was normalized to total protein concentration in tissue lysates.

[5] = system: T98G xenografts; assay: as above; type: in vivo, female CD1-nu/nu mice; conditions: T98G xenograft tissue extract
Experimental: as §1, §2, §3

[6] = system: U251 xenografts; assay: as above; type: in vivo, female CD1-nu/nu mice; conditions: U251 xenograft tissue extract
Experimental: as §1, §2, §3

[7] = system: U118 glioma cell line; assay: Inhibition of proliferation (cell viability); type: cell-based; conditions: Homo sapiens
Experimental: (§4) Cells were seeded at a density of 2 × 10^4 cells/mL in 24-well plates. Cells were […] to attach and grow in 5% fetal bovine serum in DMEM for 24 hours. Cells were treated with different doses of radiation or temozolomide and then maintained in the appropriate culture conditions. At the conclusion of the treatment period, cells were trypsinized and resuspended in 1.0 mL of saline; viable cells were counted using the NucleoCounter^TM NC-100 (Chemotec, […], Denmark). All experiments were conducted in triplicate. IC50 values were calculated using GraFit (Erithacus Software Limited, Staines, UK).

[8] = system: T98G glioma cell line; assay: Inhibition of proliferation (cell viability); type: cell-based; conditions: Homo sapiens
Experimental: as §4

[9] = system: SF268 glioma cell line; assay: Inhibition of proliferation (cell viability); type: cell-based; conditions: Homo sapiens, SF-268
Experimental: as §4

[10] = system: U251 glioma cell line; assay: Inhibition of proliferation (cell viability); type: cell-based; conditions: Homo sapiens, U-251
Experimental: as §4

[11] = system: U138 glioma cell line; assay: Inhibition of proliferation (cell viability); type: cell-based; conditions: Homo sapiens
Experimental: as §4

[12] = system: U373 glioma cell line; assay: Inhibition of proliferation (cell viability); type: cell-based; conditions: Homo sapiens, U373 MG
Experimental: as §4

[13] = system: SNB19 glioma cell line; assay: Inhibition of proliferation (cell viability); type: cell-based; conditions: Homo sapiens, SNB-19
Experimental: as §4

[14] = system: U87MG glioma cell line; assay: Inhibition of proliferation (cell viability); type: cell-based; conditions: Homo sapiens, U-87 MG
Experimental: as §4

[15] = system: SW1783 glioma cell line; assay: Inhibition of proliferation (cell viability); type: cell-based; conditions: Homo sapiens
Experimental: as §4

[16] = system: D54 glioma cell line; assay: Inhibition of proliferation (cell viability); type: cell-based; conditions: Homo sapiens
Experimental: as §4

[17] = system: A172 glioma cell line; assay: Inhibition of proliferation (cell viability); type: cell-based; conditions: Homo sapiens, A 172
Experimental: as §4

[18] = system: LN18 glioma cell line; assay: Inhibition of proliferation (cell viability); type: cell-based; conditions: Homo sapiens, LN-18
Experimental: as §4

[19] = system: LN229 glioma cell line; assay: Inhibition of proliferation (cell viability); type: cell-based; conditions: Homo sapiens, LN-229
Experimental: as §4

**Q.** With `CN[C@H]1CN(c2ccc3c(=O)c(C(=O)O)cn(-c4nccs4)c3n2)C[C@@H]1OC` [vosaroxin] as the compound, how does the “substrate for P-glycoprotein drug pumps” value [1] read?
**A.** not a substrate

**Q.** What about the “surviving fraction, vosaroxin alone” value ([2]; concentration equal to IC20, analyzed at 21 days of culture) of the same compound?
**A.** 0.80 ± 0.064

**Q.** What about the dose enhancement factor ([2]; irradiated 2, 4, 6 Gy 48 hours after drug exposure, calculated at a surviving fraction of 0.10) of the same compound?
**A.** 1.33

**Q.** What about the “Disease-free Survival HR (95% CI)” value ([3]; VSR vs TMZ + RT) of the same compound?
**A.** 1.2 (0.4–3.2)

**Q.** And the “Overall Survival HR (95% CI)” value ([3]; VSR vs TMZ + RT)?
**A.** 1.5 (0.5–3.0)

**Q.** And the “Disease-free Survival HR (95% CI)” value ([3]; VSR vs VSR + RT)?
**A.** 2.4 (1.1–8.8)

**Q.** And the “Overall Survival HR (95% CI)” value ([3]; VSR vs VSR + RT)?
**A.** 4.5 (2.2–22.5)

**Q.** And the “mean time of recurrence (DFS) ± SE” value ([3]; orthotopic U251-luciferase, treated for 35 days starting 5 days after cell injection)?
**A.** 70.5 ± 7.3 days

**Q.** And the “Human IL-6” value [4]?
**A.** 78 ± 13 pg/mg tissue

**Q.** And the “Human TGF-β1” value [4]?
**A.** 47 ± 8

**Q.** And the “Human TNF-α” value [4]?
**A.** 17 ± 3 pg/mg tissue

**Q.** What about the “Human and mouse IL-8” value [4] of the same compound?
**A.** 715 ± 37 pg/mg tissue

**Q.** And the “Mouse IL-1β” value [4]?
**A.** 85 ± 10 pg/mg tissue

**Q.** And the “Mouse IL-10” value [4]?
**A.** 6.2 ± 0.5

**Q.** What about the “Mouse SDF-1α” value [4] of the same compound?
**A.** 18 ± 3

**Q.** What about the “Human IL-6” value [5] of the same compound?
**A.** 30 ± 3 pg/mg tissue

**Q.** And the “Human TGF-β1” value [5]?
**A.** 27 ± 3

**Q.** What about the “Human TNF-α” value [5] of the same compound?
**A.** 3 ± 1 pg/mg tissue

**Q.** What about the “Human and mouse IL-8” value [5] of the same compound?
**A.** 440 ± 30 pg/mg tissue

**Q.** And the “Mouse IL-1β” value [5]?
**A.** 27 ± 4 pg/mg tissue

**Q.** What about the “Mouse IL-10” value [5] of the same compound?
**A.** < 1.0

**Q.** What about the “Mouse SDF-1α” value [5] of the same compound?
**A.** 12 ± 4

**Q.** And the “Human IL-6” value [6]?
**A.** 33 ± 8 pg/mg tissue

**Q.** And the “Human TGF-β1” value [6]?
**A.** 35 ± 6

**Q.** What about the “Human TNF-α” value [6] of the same compound?
**A.** 7 ± 1 pg/mg tissue

**Q.** And the “Human and mouse IL-8” value [6]?
**A.** 275 ± 35 pg/mg tissue

**Q.** What about the “Mouse IL-1β” value [6] of the same compound?
**A.** 44 ± 5 pg/mg tissue

**Q.** And the “Mouse IL-10” value [6]?
**A.** 5.2 ± 0.6

**Q.** And the “Mouse SDF-1α” value [6]?
**A.** 32 ± 3

**Q.** And the IC50 [7]?
**A.** 88.5 ± 16.7 nM

**Q.** And the IC20 [8]?
**A.** 45 nM

**Q.** What about the IC50 [8] of the same compound?
**A.** 64.5 ± 11 nM

**Q.** What about the IC50 [9] of the same compound?
**A.** 50.3 ± 12 nM

**Q.** What about the IC20 [10] of the same compound?
**A.** 15 nM

**Q.** What about the IC50 [10] of the same compound?
**A.** 18.6 ± 2.4 nM

**Q.** And the IC50 [11]?
**A.** 65.8 ± 14.6 nM

**Q.** And the IC50 [12]?
**A.** 78.4 ± 9.7 nM

**Q.** What about the IC50 [13] of the same compound?
**A.** 35.5 ± 7 nM

**Q.** And the IC20 [14]?
**A.** 65 nM

**Q.** And the IC50 [14]?
**A.** 141 ± 84.7 nM

**Q.** And the IC50 [15]?
**A.** 260 ± 9.8 nM

**Q.** And the IC50 [16]?
**A.** 190 ± 25.4 nM

**Q.** What about the IC50 [17] of the same compound?
**A.** 125 ± 89.4 nM

**Q.** What about the IC50 [18] of the same compound?
**A.** 90 ± 12.5 nM

**Q.** And the IC50 [19]?
**A.** 12.8 ± 2.3 nM
